The values that follow come from patent US6440997B2, “−E-2-(3,4-dichlorocinnamyl)-1-cyclopropylmethylpiperidine, and its antidiarrhoeal use” (Warner-Lambert Company, priority 1997, dated 2002).

The subject of data set [1] is diarrhoea induced by the thermostable toxin of E. coli. The experiment in a line: Diarrhoea induced by the thermostable toxin of E. coli in mice. It counts as in vivo. The note with it: Escherichia coli, po, p.o. 1 h before toxin 600 U/mouse p.o., faecal water at 120 min, read-out: Inhibitory activity ED50, E. coli toxin diarrhoea. The method, then: (§1) b)—diarrhoea induced by the thermostable toxin of E. coli: Nourished male NMRI mice (30-35 g) are weighed and placed in individual cages previously covered with white paper allowing the viewing of the faecal matter voided. The faeces are recovered as soon as voided and are brought together, by periods of 30 min, for 120 min. The faeces thus brought together are weighed before (fresh weight) and after (dry weight) drying at 120° C. for 24 h. The quantity of water present in the faeces is calculated as the difference (fresh weight—dry weight). The thermostable toxin of Escherichia coli (Sigma, E5763) is administered by the oral route at time zero at a dose of 600 U/mouse. The animals of the control batch receive, at time zero, an oral administration of saline. The administration of the test products is carried out by the oral route 1 h before the administration of the toxins.

In data set [2] the test system is diarrhoea induced by the A and B toxins of C. difficile. The experiment in a line: Diarrhoea induced by the A and B toxins of C. difficile in mice. The class given is in vivo. The note with it: Clostridioides difficile, po, p.o. 1 h before A and B toxins 6 ng/mouse p.o., faecal water at 120 min, read-out: Inhibitory activity ED50, C. difficile toxins diarrhoea. How it is done:
as §1
c)—diarrhoea induced by the A and B toxins of C. difficile: the experimental protocol, the calculation and the expression of the results are identical to those described above. The A and B toxins of C. difficile are administered by the oral route at time zero at a dose of 6 ng/mouse.

Data set [3] relates to intestinal secretion induced by cholera toxin. The experiment in a line: animal or person. It counts as in vivo, rats. Particulars: for ED50: Rattus norvegicus, read-out: Inhibition of intestinal secretion induced by cholera toxin: ED50.
For data set [4], the system named is diarrhoea induced by Salmonella lipopolysaccharide (LPS). The experiment in a line: Diarrhoea induced by Salmonella lipopolysaccharide (LPS) in mice. Particulars: for ED50: Salmonella, in Mus musculus, read-out: Inhibitory activity ED50, Salmonella LPS diarrhoea; for Inhibition of diarrhoea (%): Salmonella LPS.
For the next data set, the target named is sigma receptors (Rattus norvegicus, UniProt Q9R0C9). Briefly: Affinity for sigma receptors: displacement of (+)[3H]-SKF 10,047 from rat brain membrane preparation. Particulars: σ affinity: IC50, displacement of (+)[3H]-SKF 10,047, rat brain membrane preparation.
Sequence of sigma receptors (Q9R0C9 whole entry): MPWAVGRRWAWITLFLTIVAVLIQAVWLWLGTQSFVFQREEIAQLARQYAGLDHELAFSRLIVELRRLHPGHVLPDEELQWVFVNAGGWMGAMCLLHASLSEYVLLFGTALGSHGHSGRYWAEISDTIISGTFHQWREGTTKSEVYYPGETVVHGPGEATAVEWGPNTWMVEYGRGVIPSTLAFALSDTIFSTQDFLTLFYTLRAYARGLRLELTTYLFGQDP
Data set [5] has as its system inflammatory diarrhoea caused by PGE2. Particulars: cited from earlier work.
Data set [6] in a line: Toxicity study in mice by the oral route. It counts as in vivo. How it is done: In animals, the toxicity study was carried out in mice by the oral route. No mortality was noted up to the strongest dose studied, namely 300 mg/kg. No toxic symptoms were evident at doses lower than 100 mg/kg. Starting from this dose, symptoms were observed such as respiratory depression, trembling, convulsions, a state of prostration or of lethargy which were reversible in a lapse of time of 24 hours after treatment.

The next data set deals with transit. Briefly: Effect on the transit. It counts as in vivo. Particulars: oral route, mice.

pIC50: −log10 of the molar value.

As a reminder, the ED50 is the dose that gives a 50% effect, or the effect in half of the subjects. The term pIC50 denotes the IC50 on a negative log10 scale, so that one unit is a factor of ten. Take `Clc1ccc(C=CCC2CCCCN2CC2CC2)cc1Cl` (racemic) [(+/−) parent racemate, racemic E-2-(3,4-dichlorocinnamyl)-1-cyclopropylmethylpiperidine]: the ED50 in data set [1] was determined as 0.077 mg/kg; in data set [2], 0.058 mg/kg; in data set [3], 1.9 mg/kg; in data set [4] it was 0.038 mg/kg. The same compound gave a negative-log IC50 (pIC50) on sigma receptors of 7.36.

With `Clc1ccc(/C=C/CC2CCCCN2CC2CC2)cc1Cl` (single isomer, unassigned; (+)) [(+)E-2-(3,4-dichlorocinnamyl)-1-cyclopropylmethylpiperidine], the negative logarithm of the IC50 (pIC50) on sigma receptors was 7.66.

As for `CCC(C/C=C/c1ccccc1)(c1ccccc1)N(C)CC1CC1` (single isomer, unassigned; (+)) [igmesine, (+)-N-cyclopropylmethyl-N-methyldiphenyl-1,4-ethyl-1-buten-3-yl-1-amine], the figures for the ED50 in data set [1], in data set [2] and in data set [4] were 1.72 mg/kg, 1.45 mg/kg and 0.42 mg/kg, respectively. Further, the “Delay of the appearance of the diarrhoea” value in data set [5] (30 mg/kg i.p., co-administered with PGE2, mice) is “approximately 15 min”. For the same compound, the “Inhibitory effect on PGE2 diarrhoea by the oral route” value in data set [5] (60 mg/kg oral route, mice) is recorded as “zero”.

As to `C(=C\c1ccccc1)/CC1CCCN1CC1CC1` (single isomer, unassigned; (-)) [Ex. 1.3, (−)E-2-cinnamyl-1-cyclopropylmethylpyrrolidine], the 50% effective dose (ED50) in data set [4] was 0.002 mg/kg. The “Inhibition of diarrhoea (%)” value is on record as 63.8% in data set [4] (dose 0.003 mg/kg p.o., mice, 0.003 mg/kg); 78.8% in data set [4] (dose 0.01 mg/kg p.o., mice); 46.7% in data set [4] (dose 0.03 mg/kg p.o., mice, 0.03 mg/kg).

For `C(=C\c1ccccc1)/CC1CCCCN1CC1CC1` (single isomer, unassigned; (-)) [Ex. 2A.3, (−)E-2-cinnamyl-1-cyclopropylmethyl-piperidine], the “Inhibition of diarrhoea (%)” value was 45% in data set [4] (dose 0.00003 mg/kg p.o., mice, 3e-05 mg/kg); 65.8% in data set [4] (dose 0.0001 mg/kg p.o., mice); 36.8% in data set [4] (dose 0.001 mg/kg p.o., mice, 0.001 mg/kg).

In the case of `Clc1ccc(/C=C/CC2CCCCN2CC2CC2)cc1Cl` (single isomer, unassigned; (-)) [eutomer (I), (−)E-2-(3,4-dichlorocinnamyl)-1-cyclopropylmethylpiperidine], the ED50 was 0.019 mg/kg in data set [1], less than 0.001 mg/kg in data set [2], 0.038 mg/kg in data set [3] and 0.0056 mg/kg in data set [4]. In addition, the “times more active than the racemate” value in data set [3] (rat, in vivo, po) is listed as roughly 50 times. Moreover, in data set [6], the “Dose up to which no mortality was noted (strongest dose studied)” value is no less than 300 mg/kg. In addition, the “Dose from which toxic symptoms were observed (none at lower doses)” value in data set [6] (respiratory depression, trembling, convulsions, prostration or lethargy, reversible in 24 hours) is on record as no less than 100 mg/kg. Besides, the “Action on the transit” value with transit was “without acting on the transit”. The “Inhibition of diarrhoea (%)” value in data set [4] (dose 0.003 mg/kg p.o., mice, listed as compound of the invention, 0.003 mg/kg) was found to be 46.1%; in data set [4] (dose 0.01 mg/kg p.o., mice), 59.7%; in data set [4] (dose 0.03 mg/kg p.o., mice), 59.5%; in data set [4] (dose 0.1 mg/kg p.o., mice) it was 69.5%. Besides, in data set [4] (oral route, mice, diarrhoea caused by LPS), the “times more active than acetorphan” value is “more than 6000 times”. Also, at sigma receptors, the negative-log IC50 (pIC50) is 7.75.

With `CC(=O)SCC(Cc1ccccc1)C(=O)NCC(=O)OCc1ccccc1` (stereo not drawn) [acetorphan], in data set [4], the 50% effective dose (ED50) worked out at 34 mg/kg.

As for `CN(C)C(=O)C(CCN1CCC(O)(c2ccc(Cl)cc2)CC1)(c1ccccc1)c1ccccc1` [loperamide], the ED50 stood at 3.92 mg/kg in data set [1], 4.27 mg/kg in data set [2] and 0.37 mg/kg in data set [4].
